A short description of data set [1]: DRUGMATRIX: Calcium Channel Type L, Benzothiazepine radioligand binding (ligand: [3H] Diltiazem). In kind it is cell membranes, Rattus norvegicus, Wistar, Brain, Membrane. The note with it: Not Active = under 50% inhibition at 10 µM.
Data set [2] in a line: DRUGMATRIX: Tumor Necrosis Factor (TNF), Non-Selective radioligand binding (ligand: [125I] TNF-alpha). The note with it: u-937; Not Active = under 50% inhibition at 10 µM. In kind it is cell membranes, Membrane.
The target in data set [3] is Epidermal growth factor receptor (Homo sapiens, UniProt P00533). Put plainly: DRUGMATRIX: Protein Tyrosine Kinase, EGF Receptor enzyme inhibition (substrate: Poly(Glu:Tyr)). In kind it is cell-based, Insect cells. The note with it: insect cells; Not Active = under 50% inhibition at 10 µM.
Chain of Epidermal growth factor receptor (P00533 whole entry): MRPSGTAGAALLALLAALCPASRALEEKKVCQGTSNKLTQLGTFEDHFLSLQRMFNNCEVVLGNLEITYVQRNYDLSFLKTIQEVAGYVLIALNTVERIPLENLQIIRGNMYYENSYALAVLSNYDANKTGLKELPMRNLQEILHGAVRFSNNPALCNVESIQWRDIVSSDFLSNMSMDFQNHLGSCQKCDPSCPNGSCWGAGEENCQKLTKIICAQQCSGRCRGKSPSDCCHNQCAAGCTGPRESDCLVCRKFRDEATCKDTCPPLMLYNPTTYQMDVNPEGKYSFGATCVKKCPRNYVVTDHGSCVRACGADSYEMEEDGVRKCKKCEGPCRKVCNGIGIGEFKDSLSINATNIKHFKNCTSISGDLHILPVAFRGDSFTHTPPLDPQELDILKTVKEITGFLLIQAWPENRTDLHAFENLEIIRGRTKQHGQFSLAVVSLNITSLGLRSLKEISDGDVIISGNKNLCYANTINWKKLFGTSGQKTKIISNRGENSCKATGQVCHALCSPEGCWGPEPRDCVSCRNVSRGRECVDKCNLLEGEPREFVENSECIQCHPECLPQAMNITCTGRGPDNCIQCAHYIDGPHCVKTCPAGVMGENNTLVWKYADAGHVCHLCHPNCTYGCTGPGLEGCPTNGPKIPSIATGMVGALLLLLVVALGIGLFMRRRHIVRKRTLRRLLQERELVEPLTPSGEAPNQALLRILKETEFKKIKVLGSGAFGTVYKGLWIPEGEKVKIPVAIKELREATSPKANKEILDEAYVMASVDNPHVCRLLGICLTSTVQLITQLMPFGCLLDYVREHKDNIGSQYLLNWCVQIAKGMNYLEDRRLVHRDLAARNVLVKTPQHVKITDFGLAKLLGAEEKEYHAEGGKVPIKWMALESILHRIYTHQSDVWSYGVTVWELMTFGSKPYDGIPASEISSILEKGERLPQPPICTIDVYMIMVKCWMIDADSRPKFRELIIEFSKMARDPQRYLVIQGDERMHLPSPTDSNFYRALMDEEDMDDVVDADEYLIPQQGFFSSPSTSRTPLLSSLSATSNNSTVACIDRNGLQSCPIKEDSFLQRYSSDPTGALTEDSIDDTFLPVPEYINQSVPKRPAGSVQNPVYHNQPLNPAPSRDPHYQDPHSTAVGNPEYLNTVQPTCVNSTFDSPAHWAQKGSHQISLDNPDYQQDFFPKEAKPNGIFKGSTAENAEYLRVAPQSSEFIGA
In another data set the target is Acetylcholinesterase (Homo sapiens, UniProt P22303). Put plainly: DRUGMATRIX: Acetylcholinesterase enzyme inhibition (substrate: acetylthiocholine). In kind it is cell-based, HEK293. The note with it: hek293; Not Active = under 50% inhibition at 10 µM.
Chain of Acetylcholinesterase (P22303 whole entry): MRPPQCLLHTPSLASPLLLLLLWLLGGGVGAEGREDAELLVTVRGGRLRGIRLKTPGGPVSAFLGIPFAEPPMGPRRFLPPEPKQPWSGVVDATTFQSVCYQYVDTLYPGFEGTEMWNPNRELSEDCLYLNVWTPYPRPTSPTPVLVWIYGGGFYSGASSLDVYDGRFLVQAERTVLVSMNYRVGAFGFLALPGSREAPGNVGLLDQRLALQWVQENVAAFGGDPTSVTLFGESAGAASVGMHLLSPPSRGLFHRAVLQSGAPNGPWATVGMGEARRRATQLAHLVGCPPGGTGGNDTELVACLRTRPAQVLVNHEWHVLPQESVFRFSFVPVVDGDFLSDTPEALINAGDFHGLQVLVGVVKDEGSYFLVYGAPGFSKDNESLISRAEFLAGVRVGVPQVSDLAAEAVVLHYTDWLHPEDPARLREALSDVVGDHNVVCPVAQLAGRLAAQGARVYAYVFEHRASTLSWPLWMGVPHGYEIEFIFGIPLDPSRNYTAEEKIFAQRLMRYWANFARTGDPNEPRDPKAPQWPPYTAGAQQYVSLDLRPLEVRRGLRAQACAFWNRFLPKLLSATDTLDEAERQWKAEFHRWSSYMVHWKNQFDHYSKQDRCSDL
A further data set addresses Cytochrome P450 2E1 (Homo sapiens, UniProt P05181). The note with it: bti-tn-5b1-4.
The target in data set [4] is T1, Muscarinic acetylcholine receptor M5 (Homo sapiens, UniProt P08912). Also: in other assays of this panel Not Active means under 50% inhibition at 10 µM.
T1 sequence (P08912 whole entry): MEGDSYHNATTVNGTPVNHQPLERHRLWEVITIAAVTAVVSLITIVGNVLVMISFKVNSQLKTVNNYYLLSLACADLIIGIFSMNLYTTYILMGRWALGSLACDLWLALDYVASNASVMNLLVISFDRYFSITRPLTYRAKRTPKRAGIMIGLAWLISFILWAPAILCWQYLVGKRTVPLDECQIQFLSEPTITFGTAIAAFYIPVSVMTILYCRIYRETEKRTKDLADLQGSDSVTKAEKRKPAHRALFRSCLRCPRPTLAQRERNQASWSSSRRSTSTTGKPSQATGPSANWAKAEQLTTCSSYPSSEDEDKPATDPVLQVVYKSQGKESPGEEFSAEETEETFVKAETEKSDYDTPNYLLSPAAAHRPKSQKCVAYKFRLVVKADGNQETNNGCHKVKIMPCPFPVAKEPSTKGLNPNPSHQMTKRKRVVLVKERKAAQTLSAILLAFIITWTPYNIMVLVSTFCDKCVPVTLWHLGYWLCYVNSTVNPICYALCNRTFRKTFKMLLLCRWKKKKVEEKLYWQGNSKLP
In kind it is cell membranes, CHO-K1, Membrane. The note with it: cho-k1.

For 17 molecules, IC50 and Ki results are on record in ChEMBL document CHEMBL1909046, “DrugMatrix in vitro pharmacology data”.

Structures are written as SMILES.

One may read the IC50 as the concentration needed to halve the response being measured. As usually defined, the Ki is the dissociation constant of the complex between target and ligand, obtained from inhibition or displacement.

Chain of Cytochrome P450 2E1 (P05181 whole entry): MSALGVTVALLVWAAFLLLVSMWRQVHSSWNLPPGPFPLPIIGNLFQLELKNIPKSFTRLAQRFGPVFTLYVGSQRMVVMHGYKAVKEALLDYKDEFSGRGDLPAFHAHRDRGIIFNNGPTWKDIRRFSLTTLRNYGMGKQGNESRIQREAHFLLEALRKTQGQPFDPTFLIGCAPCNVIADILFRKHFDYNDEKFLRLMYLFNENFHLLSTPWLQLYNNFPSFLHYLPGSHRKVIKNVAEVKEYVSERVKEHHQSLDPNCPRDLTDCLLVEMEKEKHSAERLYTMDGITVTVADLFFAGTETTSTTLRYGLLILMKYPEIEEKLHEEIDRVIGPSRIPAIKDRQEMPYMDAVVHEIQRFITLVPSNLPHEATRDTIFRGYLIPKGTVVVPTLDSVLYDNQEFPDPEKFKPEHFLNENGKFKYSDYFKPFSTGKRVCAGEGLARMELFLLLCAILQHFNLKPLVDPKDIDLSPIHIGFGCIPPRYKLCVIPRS

On to `O=S(=O)([O-])CCS.[Na+]` [MESNA], for which the IC50 result (in data set [1]; in data set [2]; in data set [3]; against Acetylcholinesterase; at Cytochrome P450 2E1; in data set [4]) was “Not Active” throughout. The Ki entry (in data set [1]; in data set [2]; on Cytochrome P450 2E1) was “Not Active” throughout.

In the case of `C#C[C@]1(O)CC[C@H]2[C@@H]3CCc4cc(OC)ccc4[C@H]3CC[C@@]21C` [MESTRANOL], the half-inhibitory concentration (IC50) result (in data set [1]; in data set [2]; in data set [3]; at Acetylcholinesterase; against Cytochrome P450 2E1; in data set [4]) was “Not Active” each time. The Ki entry (in data set [1]; in data set [2]; at Cytochrome P450 2E1) was “Not Active” throughout.

Consider `CC(=O)Nc1cccc(O)c1` [METACETAMOL], for which the IC50 entry (in data set [1]; in data set [2]; in data set [3]; on Acetylcholinesterase; against Cytochrome P450 2E1; in data set [4]) was “Not Active” throughout. Besides, the Ki result (in data set [1]; in data set [2]; on Cytochrome P450 2E1) was “Not Active” throughout.

Consider `Cc1ncc([N+](=O)[O-])n1CCO` [METRONIDAZOLE], for which the IC50 result (in data set [1]; in data set [2]; in data set [3]; against Acetylcholinesterase; on Cytochrome P450 2E1; in data set [4]) was “Not Active” each time. The Ki entry (in data set [1]; in data set [2]; at Cytochrome P450 2E1) was “Not Active” in each case.

As for `CC(C)(C(=O)c1cccnc1)c1cccnc1` [METYRAPONE], the IC50 entry (in data set [1]; in data set [2]; in data set [3]; on Acetylcholinesterase; against Cytochrome P450 2E1; in data set [4]) was “Not Active” each time. The Ki entry (in data set [1]; in data set [2]; at Cytochrome P450 2E1) was “Not Active” each time.

`Oc1ccc(OCc2ccccc2)cc1` [MONOBENZONE]: the IC50 entry (in data set [1]; in data set [2]; in data set [3]; against Acetylcholinesterase; on Cytochrome P450 2E1; in data set [4]) was “Not Active” in each case. Moreover, the inhibitory constant (Ki) entry (in data set [1]; in data set [2]; on Cytochrome P450 2E1) was “Not Active” throughout.

For the molecule `CC(C)(Oc1ccc(C2CCCc3ccccc32)cc1)C(=O)O` (stereo not drawn) [NAFENOPIN], the IC50 result (in data set [1]; in data set [2]; in data set [3]; at Acetylcholinesterase; on Cytochrome P450 2E1; in data set [4]) was “Not Active” in each case. Besides, the Ki entry (in data set [1]; in data set [2]; on Cytochrome P450 2E1) was “Not Active” throughout.

Consider `CC(C)[C@H]1CC[C@H](C(=O)N[C@H](Cc2ccccc2)C(=O)O)CC1` [NATEGLINIDE], for which the IC50 result (in data set [1]; in data set [2]; in data set [3]; at Acetylcholinesterase; against Cytochrome P450 2E1; in data set [4]) was “Not Active” each time. Moreover, the Ki result (in data set [1]; in data set [2]; at Cytochrome P450 2E1) was “Not Active” throughout.

Regarding `CCN[C@@H]1C[C@H](N)[C@@H](O[C@H]2OC(CN)=CC[C@H]2N)[C@H](O)[C@H]1O[C@H]1OC[C@](C)(O)[C@H](NC)[C@H]1O` [NETILMICIN], the IC50 entry (in data set [1]; in data set [2]; in data set [3]; on Acetylcholinesterase; against Cytochrome P450 2E1; in data set [4]) was “Not Active” in each case. Also, the Ki result (in data set [1]; in data set [2]; on Cytochrome P450 2E1) was “Not Active” in each case.

For the molecule `COC(=O)C1=C(C)NC(C)=C(C(=O)OCC(C)C)C1c1ccccc1[N+](=O)[O-]` (stereo not drawn) [NISOLDIPINE], the IC50 in data set [1] (read-out: IC50) was 2.48 nM; in data set [2] it was “Not Active”; in data set [3], “Not Active”; against Acetylcholinesterase, “Not Active”; at Cytochrome P450 2E1, “Not Active”; in data set [4], “Not Active”. The Ki in data set [1] (read-out: Ki) was 2.21 nM; in data set [2], “Not Active”; at Cytochrome P450 2E1 it was “Not Active”.

For `CCOC(=O)C1=C(C)NC(C)=C(C(=O)OC)C1c1cccc([N+](=O)[O-])c1` (stereo not drawn) [NITRENDIPINE], the IC50 in data set [1] (read-out: IC50) was 1.56 nM; in data set [2], “Not Active”; in data set [3], “Not Active”; against Acetylcholinesterase it was “Not Active”; against Cytochrome P450 2E1, “Not Active”; in data set [4], “Not Active”. Further, the Ki is 1.39 nM in data set [1] (read-out: Ki), “Not Active” in data set [2] and “Not Active” on Cytochrome P450 2E1.

`C#C[C@]1(OC(C)=O)CC[C@H]2[C@@H]3CCC4=CC(=O)CC[C@@H]4[C@H]3CC[C@@]21C` [NORETHINDRONE ACETATE]: the IC50 entry (in data set [1]; in data set [2]; in data set [3]; against Acetylcholinesterase; at Cytochrome P450 2E1; in data set [4]) was “Not Active” in each case. The Ki result (in data set [1]; in data set [2]; on Cytochrome P450 2E1) was “Not Active” in each case.

As to `COc1ccc2[nH]c([S+]([O-])Cc3ncc(C)c(OC)c3C)nc2c1` (stereo not drawn) [OMEPRAZOLE], the IC50 result (in data set [1]; in data set [2]; in data set [3]; against Acetylcholinesterase; on Cytochrome P450 2E1; in data set [4]) was “Not Active” throughout. The inhibition constant Ki entry (in data set [1]; in data set [2]; at Cytochrome P450 2E1) was “Not Active” in each case.

`Cc1nccn1CC1CCc2c(c3ccccc3n2C)C1=O` (stereo not drawn) [ONDANSETRON]: the IC50 result (in data set [1]; in data set [2]; in data set [3]; against Acetylcholinesterase; against Cytochrome P450 2E1; in data set [4]) was “Not Active” throughout. For the same molecule, the Ki entry (in data set [1]; in data set [2]; at Cytochrome P450 2E1) was “Not Active” in each case.

With `CCCCOc1ccc(OCCCN2CCOCC2)cc1` [PRAMOXINE], the IC50 result (in data set [1]; in data set [2]; in data set [3]; against Acetylcholinesterase; on Cytochrome P450 2E1; in data set [4]) was “Not Active” throughout. Further, the Ki result (in data set [1]; in data set [2]; at Cytochrome P450 2E1) was “Not Active” throughout.

For `O=C(C1CCCCC1)N1CC(=O)N2CCc3ccccc3C2C1` (stereo not drawn) [PRAZIQUANTEL], the IC50 result (in data set [1]; in data set [2]; in data set [3]; on Acetylcholinesterase; against Cytochrome P450 2E1; in data set [4]) was “Not Active” in each case. The Ki entry (in data set [1]; in data set [2]; at Cytochrome P450 2E1) was “Not Active” each time.

`CCN(CC)CCOC(=O)c1ccc(N)cc1` [PROCAINE]: the IC50 entry (in data set [1]; in data set [2]; in data set [3]; against Acetylcholinesterase; on Cytochrome P450 2E1; in data set [4]) was “Not Active” in each case. Also, the Ki result (in data set [1]; in data set [2]; on Cytochrome P450 2E1) was “Not Active” throughout.
